The target in one experiment is T1, purified human HDAC6 (Homo sapiens, UniProt Q9UBN7).
T1 construct: purchased BPS Bioscience 5006
T1 sequence (Q9UBN7 1-1215): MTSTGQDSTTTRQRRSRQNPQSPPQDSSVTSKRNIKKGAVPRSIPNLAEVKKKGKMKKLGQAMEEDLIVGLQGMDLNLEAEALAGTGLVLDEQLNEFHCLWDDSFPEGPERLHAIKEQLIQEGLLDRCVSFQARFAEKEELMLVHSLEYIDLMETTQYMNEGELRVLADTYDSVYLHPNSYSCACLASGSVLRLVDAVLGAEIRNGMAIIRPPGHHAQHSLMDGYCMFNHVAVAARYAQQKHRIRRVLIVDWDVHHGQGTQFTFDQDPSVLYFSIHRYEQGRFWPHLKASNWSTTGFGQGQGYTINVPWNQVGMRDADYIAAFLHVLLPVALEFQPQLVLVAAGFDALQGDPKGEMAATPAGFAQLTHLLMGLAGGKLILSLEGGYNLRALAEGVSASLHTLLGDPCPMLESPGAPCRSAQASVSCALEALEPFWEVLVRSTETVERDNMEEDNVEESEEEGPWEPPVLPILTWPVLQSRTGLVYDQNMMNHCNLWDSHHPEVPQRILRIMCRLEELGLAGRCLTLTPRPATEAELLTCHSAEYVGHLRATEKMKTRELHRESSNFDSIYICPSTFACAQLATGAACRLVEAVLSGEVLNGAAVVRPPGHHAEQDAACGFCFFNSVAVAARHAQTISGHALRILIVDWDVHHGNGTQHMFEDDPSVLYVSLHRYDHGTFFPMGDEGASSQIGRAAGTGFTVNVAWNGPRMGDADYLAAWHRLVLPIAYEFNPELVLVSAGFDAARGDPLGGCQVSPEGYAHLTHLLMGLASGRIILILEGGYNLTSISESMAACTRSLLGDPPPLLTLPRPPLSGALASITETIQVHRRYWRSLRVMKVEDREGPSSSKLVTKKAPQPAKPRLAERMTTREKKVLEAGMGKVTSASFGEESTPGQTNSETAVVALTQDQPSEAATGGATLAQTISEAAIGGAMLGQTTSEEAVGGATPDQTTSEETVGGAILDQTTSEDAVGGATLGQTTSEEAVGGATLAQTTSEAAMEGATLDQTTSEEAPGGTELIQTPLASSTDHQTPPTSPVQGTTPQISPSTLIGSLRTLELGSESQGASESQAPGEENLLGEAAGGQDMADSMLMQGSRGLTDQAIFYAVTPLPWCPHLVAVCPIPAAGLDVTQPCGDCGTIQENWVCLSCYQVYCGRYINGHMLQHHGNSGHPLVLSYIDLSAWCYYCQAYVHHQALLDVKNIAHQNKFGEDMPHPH
As to the kind of experiment: HDAC6 Enzyme Assay. The experiment is classed as biochemical. Conditions: compound concentration 0.37 μM, read-out: Percent Inhibition. Here is the method:
To measure the inhibition of HDAC6 activity, purified human HDAC6 (BPS Bioscience; Cat. No. 5006) is incubated with substrate Ac-Arg-Gly-Lys(Ac)-AMC peptide (Bachem Biosciences; Cat. No. I-1925) for 1 hour at 30° C. in the presence of test compounds or vehicle DMSO control. The reaction is stopped with the HDAC inhibitor trichostatin A (Sigma; Cat. No. T8552) and the amount of Arg-Gly-Lys-AMC generated is quantitated by digestion with trypsin (Sigma; Cat. No. T1426) and subsequent measurement of the amount of AMC released using a fluorescent plate reader (Pherastar; BMG Technologies) set at Ex 340 nm and Em 460 nm. Concentration response curves are generated by calculating the fluorescence increase in test compound-treated samples relative to DMSO-treated controls, and percentage inhibition values at a single concentration or enzyme inhibition (IC50) values are determined from those curves. One skilled in the art will appreciate that the values generated either as percentage inhibition at a single concentration or IC50 values are subject to experimental variation.
Regarding `CC(C)(C)C(=O)NCCCn1ccc2ccc(C(=O)NO)cc2c1=O` [Compound I-8, 2-{3-[(2,2-dimethylpropanoyl)amino]propyl}-N-hydroxy-1-oxo-1,2-dihydroisoquinoline-7-carboxamide], the inhibition (usually the change of the read-out against control, counted positive when it falls) at 0.37 µM is 91.7%.
With `CC(c1ccccc1)n1cnc2ccc(C(=O)NO)cc2c1=O` (stereo not shown) [Compound I-12, N-hydroxy-4-oxo-3-(1-phenylethyl)-3,4-dihydroquinazoline-6-carboxamide], the inhibition at 0.37 µM is 99.2%.
Same read-out and setting: the same measure for `CCn1nccc1-c1nc2cc(C(=O)NO)ccc2c(=O)n1Cc1ccc(C(F)(F)F)cc1` [Compound I-13, 2-(1-ethyl-1H-pyrazol-5-yl)-N-hydroxy-4-oxo-3-[4-(trifluoromethyl)benzyl]-3,4-dihydroquinazoline-7-carboxamide]: 82.1%.
Same read-out and setting: the same measure for `O=C(NO)c1ccc2ncn(Cc3cccc(-c4c(Cl)cccc4Cl)c3)c(=O)c2c1` [Compound I-23, 3-[(2′,6′-dichlorobiphenyl-3-yl)methyl]-N-hydroxy-4-oxo-3,4-dihydroquinazoline-6-carboxamide]: 92.2%; for `O=C(NO)c1ccc2c(=O)n(Cc3ccc(C(F)(F)F)cc3)c(-c3cccc4cccnc34)nc2c1` [Compound I-26, N-hydroxy-4-oxo-2-quinolin-8-yl-3-[4-(trifluoromethyl)benzyl]-3,4-dihydroquinazoline-7-carboxamide]: 92.3%; for `O=C(NO)c1ccc2ncn(Cc3cccc(-c4ccccc4Cl)c3)c(=O)c2c1` [Compound I-28, 3-[(2′-chlorobiphenyl-3-yl)methyl]-N-hydroxy-4-oxo-3,4-dihydroquinazoline-6-carboxamide]: 85.5%.

Staying with this experiment, now noted: compound concentration 0.412 μM, read-out: Percent Inhibition.
With `O=C(NO)c1ccc2ccn(Cc3ccc(Cl)c(Cl)c3)c(=O)c2c1` [Compound I-1, 2-(3,4-dichlorobenzyl)-N-hydroxy-1-oxo-1,2-dihydroisoquinoline-7-carboxamide], the inhibition at 0.412 µM was 95.9%.
Same read-out and setting: the result for `O=C(NO)c1ccc2ccn(CC3CCNCC3)c(=O)c2c1` [Compound I-2, N-hydroxy-1-oxo-2-(piperidin-4-ylmethyl)-1,2-dihydroisoquinoline-7-carboxamide] reads 82.2%; that for `COc1ccc(OCCCn2ccc3ccc(C(=O)NO)cc3c2=O)cc1` [Compound I-3, N-hydroxy-2-[3-(4-methoxyphenoxy)propyl]-1-oxo-1,2-dihydroisoquinoline-7-carboxamide], 95.8%.
Still for that read-out and setting: the same measure for `O=C(NO)c1ccc2ncn(C(c3ccccc3)c3ccccc3)c(=O)c2c1` [Compound I-4, 3-(diphenylmethyl)-N-hydroxy-4-oxo-3,4-dihydroquinazoline-6-carboxamide]: 79.6%.
The same measure, in the same setting: the same measure for `O=C(NO)c1ccc2ccn(Cc3ccc4ccccc4c3)c(=O)c2c1` [Compound I-5, N-hydroxy-2-(2-naphthylmethyl)-1-oxo-1,2-dihydroisoquinoline-7-carboxamide]: 96.5%.
For the molecule `O=C(NO)c1ccc2c(=O)n(CCc3ccccn3)c(C3CCCCC3)nc2c1` [Compound I-6, 2-cyclohexyl-N-hydroxy-4-oxo-3-(2-pyridin-2-ylethyl)-3,4-dihydroquinazoline-7-carboxamide], the inhibition at 0.412 µM was found to be 77.7%.
Same read-out and setting: the result for `O=C(NO)c1ccc2ccn(Cc3c(Cl)cccc3Cl)c(=O)c2c1` [Compound I-7, 2-(2,6-dichlorobenzyl)-N-hydroxy-1-oxo-1,2-dihydroisoquinoline-7-carboxamide] reads 94.9%; that for `CC(C)n1c(-c2ccccc2)nc2cc(C(=O)NO)ccc2c1=O` [Compound I-9, N-hydroxy-3-isopropyl-4-oxo-2-phenyl-3,4-dihydroquinazoline-7-carboxamide], 85%; that for `Cc1ccn(CCn2ccc3ccc(C(=O)NO)cc3c2=O)n1` [Compound I-10, N-hydroxy-2-[2-(3-methyl-1H-pyrazol-1-yl)ethyl]-1-oxo-1,2-dihydroisoquinoline-7-carboxamide], 84.5%.
Same read-out and setting: the same measure for `O=C(NO)c1ccc2ccn(CCCc3ccccc3)c(=O)c2c1` [Compound I-11, N-hydroxy-1-oxo-2-(3-phenylpropyl)-1,2-dihydroisoquinoline-7-carboxamide]: 97%; for `O=C(NO)c1ccc2ccn(Cc3cccc(OC(F)(F)F)c3)c(=O)c2c1` [Compound I-14, N-hydroxy-1-oxo-2-[3-(trifluoromethoxy)benzyl]-1,2-dihydroisoquinoline-7-carboxamide]: 95.1%; for `CC(C)Nc1nc2cc(C(=O)NO)ccc2c(=O)n1C` [Compound I-15, N-hydroxy-2-(isopropylamino)-3-methyl-4-oxo-3,4-dihydroquinazoline-7-carboxamide]: 32.7%.
Still for that read-out and setting: the same measure for `O=C(NO)c1ccc2c(=O)n(Cc3cccc(C(F)(F)F)c3)cnc2c1` [Compound I-16, N-hydroxy-4-oxo-3-[3-(trifluoromethyl)benzyl]-3,4-dihydroquinazoline-7-carboxamide]: 95.8%; for `CC(C)(C)c1cccc(OCc2nc3cc(C(=O)NO)ccc3c(=O)[nH]2)c1` [Compound I-17, 2-[(3-tert-butylphenoxy)methyl]-N-hydroxy-4-oxo-3,4-dihydroquinazoline-7-carboxamide]: 30.6%; for `Cc1nc2cc(C(=O)NO)ccc2c(=O)[nH]1` [Compound I-18, N-hydroxy-2-methyl-4-oxo-3,4-dihydroquinazoline-7-carboxamide]: 68.9%.
Turning to `O=C(NO)c1ccc2ccn(C(c3ccccc3)c3ccccc3)c(=O)c2c1` [Compound I-19, 2-(diphenylmethyl)-N-hydroxy-1-oxo-1,2-dihydroisoquinoline-7-carboxamide], the inhibition at 0.412 µM turned out to be 94.4%.
`O=C(NO)c1ccc2ccn(CCCOc3cccc(OCc4ccccc4)c3)c(=O)c2c1` [Compound I-20, 2-{3-[3-(benzyloxy)phenoxy]propyl}-N-hydroxy-1-oxo-1,2-dihydroisoquinoline-7-carboxamide]: the inhibition at 0.412 µM came to 83%.
Same read-out and setting: the result for `O=C(NO)c1ccc2ccn(CCCOc3cccc4c3CCC4)c(=O)c2c1` [Compound I-21, 2-[3-(2,3-dihydro-1H-inden-4-yloxy)propyl]-N-hydroxy-1-oxo-1,2-dihydroisoquinoline-7-carboxamide] reads 96.1%; that for `O=C(NO)c1ccc2c(=O)n(CCOc3ccccc3)cnc2c1` [Compound I-22, N-hydroxy-4-oxo-3-(2-phenoxyethyl)-3,4-dihydroquinazoline-7-carboxamide], 96.4%; that for `O=C(NO)c1ccc2ccn(Cc3cccc(F)c3F)c(=O)c2c1` [Compound I-24, 2-(2,3-difluorobenzyl)-N-hydroxy-1-oxo-1,2-dihydroisoquinoline-7-carboxamide], 93.7%.
The same measure, in the same setting: the result for `O=C(NO)c1ccc2ncn(CC3CC3)c(=O)c2c1` [Compound I-25, 3-(cyclopropylmethyl)-N-hydroxy-4-oxo-3,4-dihydroquinazoline-6-carboxamide] reads 84.7%; that for `Cc1nc(-c2ccccc2OCCn2ccc3ccc(C(=O)NO)cc3c2=O)cs1` [Compound I-27, N-hydroxy-2-{2-[2-(2-methyl-1,3-thiazol-4-yl)phenoxy]ethyl}-1-oxo-1,2-dihydroisoquinoline-7-carboxamide], 98.6%.
